Measured values reported in PMC12090182, “Repurposing of the RIPK1-Selective Benzo[1,4]oxazepin-4-one Scaffold for the Development of a Type III LIMK1/2 Inhibitor” (ACS Chemical Biology, 2025).

Legend:
Assay in all cases: scanMAX KINOMEscan (Eurofins)
Assay type in all cases: binding
PRKCI = PRKCI (Homo sapiens, UniProt P41743); conditions: 1000 nM, read-out: Percent Control
Source text: (§1) Supplement cb5c00097_si_002.xlsx, sheet "Table S6 (Eurofins Selectivity)" | column: Percent Control

DAPK3 = DAPK3 (Homo sapiens, UniProt O43293); conditions: 1000 nM, read-out: Percent Control
Source text: as §1

ERK3 = ERK3 (Homo sapiens, UniProt Q16659); conditions: read-out: Percent Control
Source text: as §1

NEK11 = NEK11 (Homo sapiens, UniProt Q8NG66); conditions: 1000 nM, read-out: Percent Control
Source text: as §1

[1] = target: RSK2(Kin.Dom.1-N-terminal) (Homo sapiens, UniProt P51812); conditions: compound concentration 100 nM; Entrez RPS6KA3; read-out: Percent Control
Source text: as §1

DYRK1A = DYRK1A (Homo sapiens, UniProt Q13627); conditions: 1000 nM, read-out: Percent Control
Source text: as §1

HPK1 = HPK1 (Homo sapiens, UniProt Q92918); conditions: read-out: Percent Control
Source text: as §1

PKAC-alpha = PKAC-alpha (Homo sapiens, UniProt P17612); conditions: compound concentration 100 nM; Entrez PRKACA; read-out: Percent Control
Source text: as §1

PKMYT1 = PKMYT1 (Homo sapiens, UniProt Q99640); conditions: 1000 nM, read-out: Percent Control
Source text: as §1

MLK3 = MLK3 (Homo sapiens, UniProt Q16584); conditions: 1000 nM, read-out: Percent Control
Source text: as §1

GRK3 = GRK3 (Homo sapiens, UniProt P35626); conditions: 1000 nM, read-out: Percent Control
Source text: as §1

PIK3C2B = PIK3C2B (Homo sapiens, UniProt O00750); conditions: compound concentration 100 nM; Entrez PIK3C2B; read-out: Percent Control
Source text: as §1

PLK2 = PLK2 (Homo sapiens, UniProt Q9NYY3); conditions: compound concentration 100 nM; Entrez PLK2; read-out: Percent Control
Source text: as §1

PAK1 = PAK1 (Homo sapiens, UniProt Q13153); conditions: 1000 nM, read-out: Percent Control
Source text: as §1

MYLK4 = MYLK4 (Homo sapiens, UniProt Q86YV6); conditions: compound concentration 100 nM; Entrez MYLK4; read-out: Percent Control
Source text: as §1

HUNK = HUNK (Homo sapiens, UniProt P57058); conditions: read-out: Percent Control
HUNK, sequence (P57058 whole entry): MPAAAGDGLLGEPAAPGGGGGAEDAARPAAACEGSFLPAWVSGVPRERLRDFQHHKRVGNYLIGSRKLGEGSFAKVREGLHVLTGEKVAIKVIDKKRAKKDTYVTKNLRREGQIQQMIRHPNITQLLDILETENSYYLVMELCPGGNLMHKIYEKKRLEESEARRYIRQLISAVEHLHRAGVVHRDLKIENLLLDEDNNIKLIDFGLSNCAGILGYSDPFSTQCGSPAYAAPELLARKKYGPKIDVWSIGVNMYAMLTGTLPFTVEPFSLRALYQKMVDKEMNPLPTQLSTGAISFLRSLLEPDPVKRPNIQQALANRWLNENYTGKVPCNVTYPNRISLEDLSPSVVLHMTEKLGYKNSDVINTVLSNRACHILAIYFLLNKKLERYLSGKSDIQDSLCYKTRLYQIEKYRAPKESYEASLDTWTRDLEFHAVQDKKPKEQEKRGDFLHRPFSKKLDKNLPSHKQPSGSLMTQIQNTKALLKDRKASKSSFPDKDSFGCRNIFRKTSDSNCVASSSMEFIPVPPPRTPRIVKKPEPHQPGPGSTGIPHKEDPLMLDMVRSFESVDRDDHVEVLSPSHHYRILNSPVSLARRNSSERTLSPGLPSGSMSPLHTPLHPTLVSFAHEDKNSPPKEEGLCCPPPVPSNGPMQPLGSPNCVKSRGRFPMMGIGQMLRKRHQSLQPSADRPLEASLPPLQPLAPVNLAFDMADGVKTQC
Source text: as §1

YSK4 = YSK4 (Homo sapiens, UniProt Q56UN5); conditions: compound concentration 100 nM; Entrez MAP3K19; read-out: Percent Control
Source text: as §1

DCAMKL1 = DCAMKL1 (Homo sapiens, UniProt O15075); conditions: read-out: Percent Control
DCAMKL1, sequence (O15075 whole entry): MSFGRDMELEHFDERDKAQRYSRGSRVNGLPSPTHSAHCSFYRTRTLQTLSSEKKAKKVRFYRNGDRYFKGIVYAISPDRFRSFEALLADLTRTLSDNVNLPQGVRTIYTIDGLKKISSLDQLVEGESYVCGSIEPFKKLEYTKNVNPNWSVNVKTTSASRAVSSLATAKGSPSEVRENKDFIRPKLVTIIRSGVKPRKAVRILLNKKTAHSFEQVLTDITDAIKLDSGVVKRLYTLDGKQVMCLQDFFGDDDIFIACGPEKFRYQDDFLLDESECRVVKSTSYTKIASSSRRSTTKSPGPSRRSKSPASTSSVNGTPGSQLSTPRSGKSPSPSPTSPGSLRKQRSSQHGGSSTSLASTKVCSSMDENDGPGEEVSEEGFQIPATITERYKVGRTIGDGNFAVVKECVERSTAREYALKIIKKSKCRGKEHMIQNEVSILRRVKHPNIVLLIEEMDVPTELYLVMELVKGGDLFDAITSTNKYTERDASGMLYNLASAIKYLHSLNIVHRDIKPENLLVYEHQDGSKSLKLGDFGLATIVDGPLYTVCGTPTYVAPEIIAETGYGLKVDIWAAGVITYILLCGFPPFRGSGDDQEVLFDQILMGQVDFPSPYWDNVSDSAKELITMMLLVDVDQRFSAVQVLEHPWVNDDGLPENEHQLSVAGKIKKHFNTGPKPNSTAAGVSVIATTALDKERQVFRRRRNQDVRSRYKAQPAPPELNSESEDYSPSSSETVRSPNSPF
Source text: as §1

INSR = INSR (Homo sapiens, UniProt P06213); conditions: 1000 nM, read-out: Percent Control
Source text: as §1

PRKCE = PRKCE (Homo sapiens, UniProt Q02156); conditions: compound concentration 100 nM; Entrez PRKCE; read-out: Percent Control
Source text: as §1

CDK9 = CDK9 (Homo sapiens, UniProt P50750); conditions: 1000 nM, read-out: Percent Control
Source text: as §1

MST2 = MST2 (Homo sapiens, UniProt Q13188); conditions: 1000 nM, read-out: Percent Control
Source text: as §1

GRK2 = GRK2 (Homo sapiens, UniProt P25098); conditions: read-out: Percent Control
Source text: as §1

CSNK1A1 = CSNK1A1 (Homo sapiens, UniProt P48729); conditions: 1000 nM, read-out: Percent Control
Source text: as §1

[2] = target: RSK3(Kin.Dom.1-N-terminal) (Homo sapiens, UniProt Q15349); conditions: 1000 nM, read-out: Percent Control
Source text: as §1

MKK7 = MKK7 (Homo sapiens, UniProt O14733); conditions: read-out: Percent Control
MKK7, sequence (O14733 whole entry): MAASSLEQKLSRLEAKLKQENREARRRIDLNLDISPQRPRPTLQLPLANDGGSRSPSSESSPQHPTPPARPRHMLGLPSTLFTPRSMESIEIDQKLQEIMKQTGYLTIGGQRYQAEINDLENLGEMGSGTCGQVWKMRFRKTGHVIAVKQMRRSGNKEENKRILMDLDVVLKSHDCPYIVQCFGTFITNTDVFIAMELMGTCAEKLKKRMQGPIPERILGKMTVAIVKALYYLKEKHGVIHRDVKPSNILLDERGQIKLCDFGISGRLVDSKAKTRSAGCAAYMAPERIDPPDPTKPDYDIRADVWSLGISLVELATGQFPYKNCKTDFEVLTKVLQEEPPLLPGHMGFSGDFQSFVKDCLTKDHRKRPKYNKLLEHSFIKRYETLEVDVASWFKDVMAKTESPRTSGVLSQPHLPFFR
Source text: as §1

CSNK1G2 = CSNK1G2 (Homo sapiens, UniProt P78368); conditions: read-out: Percent Control
CSNK1G2, sequence (P78368 whole entry): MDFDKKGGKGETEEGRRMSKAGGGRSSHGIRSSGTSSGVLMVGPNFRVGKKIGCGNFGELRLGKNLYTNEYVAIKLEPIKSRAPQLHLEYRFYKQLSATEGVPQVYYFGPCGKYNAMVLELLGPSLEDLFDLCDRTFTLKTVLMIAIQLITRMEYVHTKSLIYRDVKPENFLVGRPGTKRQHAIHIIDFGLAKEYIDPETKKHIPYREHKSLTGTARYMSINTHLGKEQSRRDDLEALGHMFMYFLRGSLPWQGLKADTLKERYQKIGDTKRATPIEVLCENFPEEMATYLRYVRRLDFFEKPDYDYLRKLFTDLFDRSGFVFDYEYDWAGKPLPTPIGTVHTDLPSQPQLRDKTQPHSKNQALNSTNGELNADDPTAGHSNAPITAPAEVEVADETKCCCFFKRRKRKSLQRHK
Source text: as §1

CAMK2B = CAMK2B (Homo sapiens, UniProt Q13554); conditions: 1000 nM, read-out: Percent Control
Source text: as §1

MST1 = MST1 (Homo sapiens, UniProt Q13043); conditions: 1000 nM, read-out: Percent Control
Source text: as §1

ASK1 = ASK1 (Homo sapiens, UniProt Q99683); conditions: read-out: Percent Control
ASK1, sequence (Q99683 whole entry): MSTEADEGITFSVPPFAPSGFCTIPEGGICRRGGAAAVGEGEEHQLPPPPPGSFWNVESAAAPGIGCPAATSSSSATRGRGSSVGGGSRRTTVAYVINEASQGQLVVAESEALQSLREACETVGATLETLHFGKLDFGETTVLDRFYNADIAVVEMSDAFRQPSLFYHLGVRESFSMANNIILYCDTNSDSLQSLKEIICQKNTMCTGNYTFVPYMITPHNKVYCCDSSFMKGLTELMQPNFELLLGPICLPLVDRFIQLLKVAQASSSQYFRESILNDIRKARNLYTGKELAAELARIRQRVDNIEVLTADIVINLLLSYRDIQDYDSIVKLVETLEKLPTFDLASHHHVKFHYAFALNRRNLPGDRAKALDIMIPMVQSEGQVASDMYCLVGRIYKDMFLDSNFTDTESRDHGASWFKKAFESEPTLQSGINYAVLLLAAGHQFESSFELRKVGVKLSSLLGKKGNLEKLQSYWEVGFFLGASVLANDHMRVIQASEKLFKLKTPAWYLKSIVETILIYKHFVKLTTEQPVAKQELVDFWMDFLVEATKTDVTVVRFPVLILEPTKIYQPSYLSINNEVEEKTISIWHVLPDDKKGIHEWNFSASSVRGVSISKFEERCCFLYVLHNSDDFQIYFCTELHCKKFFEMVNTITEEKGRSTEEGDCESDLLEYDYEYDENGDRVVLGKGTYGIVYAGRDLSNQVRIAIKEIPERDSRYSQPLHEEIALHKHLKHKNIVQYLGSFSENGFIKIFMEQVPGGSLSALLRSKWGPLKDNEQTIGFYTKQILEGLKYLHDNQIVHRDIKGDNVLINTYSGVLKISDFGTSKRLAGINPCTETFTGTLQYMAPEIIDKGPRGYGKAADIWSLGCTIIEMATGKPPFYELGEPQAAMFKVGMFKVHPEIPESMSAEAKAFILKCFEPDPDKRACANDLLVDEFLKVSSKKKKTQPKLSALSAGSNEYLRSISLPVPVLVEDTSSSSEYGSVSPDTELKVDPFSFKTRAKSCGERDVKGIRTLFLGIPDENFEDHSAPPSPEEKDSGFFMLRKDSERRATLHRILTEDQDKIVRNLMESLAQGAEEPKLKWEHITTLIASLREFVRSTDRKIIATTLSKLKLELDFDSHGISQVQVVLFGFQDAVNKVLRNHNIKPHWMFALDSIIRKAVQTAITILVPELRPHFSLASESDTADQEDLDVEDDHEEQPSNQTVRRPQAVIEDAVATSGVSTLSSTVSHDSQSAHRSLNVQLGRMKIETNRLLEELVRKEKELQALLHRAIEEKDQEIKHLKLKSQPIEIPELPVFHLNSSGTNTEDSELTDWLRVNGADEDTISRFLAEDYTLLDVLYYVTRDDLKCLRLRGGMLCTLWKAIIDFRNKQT
Source text: as §1

ERK8 = ERK8 (Homo sapiens, UniProt Q8TD08); conditions: read-out: Percent Control
ERK8, sequence (Q8TD08 whole entry): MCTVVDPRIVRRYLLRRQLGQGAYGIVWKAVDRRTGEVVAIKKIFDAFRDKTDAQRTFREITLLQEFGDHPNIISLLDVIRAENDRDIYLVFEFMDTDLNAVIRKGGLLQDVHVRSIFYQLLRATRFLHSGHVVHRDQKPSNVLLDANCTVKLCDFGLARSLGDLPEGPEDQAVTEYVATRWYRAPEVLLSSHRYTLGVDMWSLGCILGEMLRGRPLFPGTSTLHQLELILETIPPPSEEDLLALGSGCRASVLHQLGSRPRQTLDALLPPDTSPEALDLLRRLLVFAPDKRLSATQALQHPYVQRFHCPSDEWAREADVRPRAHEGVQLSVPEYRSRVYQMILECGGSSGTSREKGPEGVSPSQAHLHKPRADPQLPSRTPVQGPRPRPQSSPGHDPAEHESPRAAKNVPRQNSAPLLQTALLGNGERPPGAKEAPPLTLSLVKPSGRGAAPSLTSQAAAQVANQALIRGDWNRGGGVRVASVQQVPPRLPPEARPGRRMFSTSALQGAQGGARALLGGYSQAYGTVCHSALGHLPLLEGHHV
Source text: as §1

TIE2 = TIE2 (Homo sapiens, UniProt Q02763); conditions: compound concentration 100 nM; Entrez TEK; read-out: Percent Control
Source text: as §1

ROS1 = ROS1 (Homo sapiens, UniProt P08922); conditions: 1000 nM, read-out: Percent Control
Source text: as §1

PFCDPK1(P.falciparum) = PFCDPK1(P.falciparum) (Plasmodium falciparum, UniProt P62344); conditions: compound concentration 100 nM; Entrez CDPK1; read-out: Percent Control
Source text: as §1

DCAMKL3 = DCAMKL3 (Homo sapiens, UniProt Q9C098); conditions: read-out: Percent Control
DCAMKL3, sequence (Q9C098 whole entry): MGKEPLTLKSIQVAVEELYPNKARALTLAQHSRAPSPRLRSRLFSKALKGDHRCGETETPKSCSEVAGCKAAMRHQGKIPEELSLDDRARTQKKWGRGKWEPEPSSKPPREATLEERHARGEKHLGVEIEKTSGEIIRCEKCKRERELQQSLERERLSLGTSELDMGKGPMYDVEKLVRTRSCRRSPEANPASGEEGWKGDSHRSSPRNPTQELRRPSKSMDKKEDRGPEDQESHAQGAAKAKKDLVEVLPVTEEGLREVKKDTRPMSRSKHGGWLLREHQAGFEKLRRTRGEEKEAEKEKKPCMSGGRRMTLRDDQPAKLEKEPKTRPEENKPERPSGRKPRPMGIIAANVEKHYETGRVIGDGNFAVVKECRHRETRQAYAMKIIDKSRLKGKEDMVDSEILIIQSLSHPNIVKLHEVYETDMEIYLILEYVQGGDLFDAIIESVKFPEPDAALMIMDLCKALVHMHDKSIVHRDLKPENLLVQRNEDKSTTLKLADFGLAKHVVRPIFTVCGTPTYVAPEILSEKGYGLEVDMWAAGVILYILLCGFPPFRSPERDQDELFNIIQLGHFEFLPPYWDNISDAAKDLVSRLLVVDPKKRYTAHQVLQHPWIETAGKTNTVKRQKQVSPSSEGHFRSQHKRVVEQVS
Source text: as §1

CN1C(=O)[C@@H](N2CCc3c(nn(Cc4ccccc4)c3C(N)=O)C2=O)COc2cc(Cl)ccc21 [Compound 10, (S)-2-benzyl-6-(8-chloro-5-methyl-4-oxo-2,3,4,5-tetrahydrobenzo[b][1,4]oxazepin-3-yl)-7-oxo-4,5,6,7-tetrahydro-2H-pyrazolo[3,4-c]pyridine-3-carboxamide]
remaining binding at 1 µM (PRKCI): 80% | remaining binding at 1 µM (DAPK3): 87% | remaining binding at 1 µM (ERK3; 1000 nM): 100% | remaining binding at 0.1 µM (ERK3; compound concentration 100 nM, Entrez MAPK6): 87% | remaining binding at 1 µM (NEK11): 78% | remaining binding at 0.1 µM [1]: 100% | remaining binding at 1 µM (DYRK1A): 93% | remaining binding at 1 µM (HPK1; 1000 nM): 100% | remaining binding at 0.1 µM (HPK1; compound concentration 100 nM, Entrez MAP4K1): 99% | remaining binding at 0.1 µM (PKAC-alpha): 90% | remaining binding at 1 µM (PKMYT1): 95% | remaining binding at 1 µM (MLK3): 92% | remaining binding at 1 µM (GRK3): 71% | remaining binding at 0.1 µM (PIK3C2B): 86% | remaining binding at 0.1 µM (PLK2): 100% | remaining binding at 1 µM (PAK1): 76% | remaining binding at 0.1 µM (MYLK4): 92% | remaining binding at 1 µM (HUNK; 1000 nM): 100% | remaining binding at 0.1 µM (HUNK; compound concentration 100 nM, Entrez HUNK): 82% | remaining binding at 0.1 µM (YSK4): 88% | remaining binding at 1 µM (DCAMKL1; 1000 nM): 100% | remaining binding at 0.1 µM (DCAMKL1; compound concentration 100 nM, Entrez DCLK1): 92% | remaining binding at 1 µM (INSR): 98% | remaining binding at 0.1 µM (PRKCE): 91% | remaining binding at 1 µM (CDK9): 85% | remaining binding at 1 µM (MST2): 80% | remaining binding at 1 µM (GRK2; 1000 nM): 99% | remaining binding at 0.1 µM (GRK2; compound concentration 100 nM, Entrez ADRBK1): 91% | remaining binding at 1 µM (CSNK1A1): 83% | remaining binding at 1 µM [2]: 93% | remaining binding at 1 µM (MKK7; 1000 nM): 99% | remaining binding at 0.1 µM (MKK7; compound concentration 100 nM, Entrez MAP2K7): 91% | remaining binding at 1 µM (CSNK1G2; 1000 nM): 100% | remaining binding at 0.1 µM (CSNK1G2; compound concentration 100 nM, Entrez CSNK1G2): 91% | remaining binding at 1 µM (CAMK2B): 80% | remaining binding at 1 µM (MST1): 92% | remaining binding at 1 µM (ASK1; 1000 nM): 100% | remaining binding at 0.1 µM (ASK1; compound concentration 100 nM, Entrez MAP3K5): 91% | remaining binding at 1 µM (ERK8; 1000 nM): 100% | remaining binding at 0.1 µM (ERK8; compound concentration 100 nM, Entrez MAPK15): 82% | remaining binding at 0.1 µM (TIE2): 95% | remaining binding at 1 µM (ROS1): 88% | remaining binding at 0.1 µM (PFCDPK1(P.falciparum)): 97% | remaining binding at 1 µM (DCAMKL3; 1000 nM): 100% | remaining binding at 0.1 µM (DCAMKL3; compound concentration 100 nM, Entrez DCLK3): 75%
